Laboratory results reported in patent US4704400A, “Medicarpin derivatives and analogs” (Merck & Co., Inc., priority 1986, dated 1987).

Legend:
[1] = tested on: leukotriene C4 production in CXBG cells; test: Inhibition of CXBG leukotriene production (leukotriene C4 by enzyme immunoassay, A23187-stimulated cells); format: cell-based, mice; conditions: A23187 stimulation 10 minutes at 37°, inhibitor preincubated 5 minutes
Method: (§1) Representative compounds of Formula I have been tested using the following assay to determine their mammalian leukotriene biosynthesis inhibiting activity and other relevant activities:
(§2) CXBG cells grown intraperitoneally in CB4 B6 /F1 /J mice were washed 5 times in Dulbeccos phosphate buffered saline without calcium or magnesium, suspended in medium 199 (Gibco) at 2×10^6 cells/ml, and incubated 15 minutes at 37°. Inhibitor solutions in methanol were incubated with the cells (10 μl/600 μl cells), for 5 minutes at 37°, and the cells were stimulated with 60 μl A23187 (50 μg/ml) for 10 minutes at 37°. Aliquots were removed for measurement of leukotriene C4 or thromboxane B2 by enzyme immunoassay as previously reported (D. K. Miller, et al., J. Immunological Methods, 81, 169-185, 1985). The percentage inhibition was calculated by the following: [formula]
(§3) IC50 s were determined graphically.

[2] = tested on: thromboxane B2 production in CXBG cells; test: Inhibition of CXBG prostoglandin production (thromboxane B2 by enzyme immunoassay, A23187-stimulated cells); format: cell-based, mice; conditions: A23187 stimulation 10 minutes at 37°, inhibitor preincubated 5 minutes
Method: as §1, §2, §3

[3] = tested on: prostaglandin; conditions: isolated from Dalbergia Odorifera T. Chen.; cited from earlier work

Molecule	IC50, LTC4 [1]	IC50, TXB2 [2]	prostaglandin inhibition [3]
(iso)medicarpin	0.1 µg/mL	> 5 µg/mL	–
COc1ccc2c(c1)O[C@H]1c3ccc(O)cc3OC[C@@H]21 (relative stereo) [medicarpin]	–	–	negative results
